Legend:
[1] = test system: S. aureus ParC^S80F GyrA^S84L; format: cell-based, Staphylococcus aureus; conditions: ParC^S80F/GyrA^S84L strain
Escherichia coli = test: MIC against E. coli; format: cell-based

COc1c(N2C[C@@H]3CCCN(c4cc(O)c5nc6c7c8c9c(C)c(O)c7c(=O)c(c-6oc5c4)NC(=O)/C(C)=C\C=C\[C@H](C(C)OC(=O)C(C)(C)CC(=O)O)[C@H](O)[C@@H](C)[C@@H](O)[C@@H](C)[C@H](OC(C)=O)[C@H](C)[C@@H](O[C@H]4C[C@@H]5OCO[C@@H]5[C@@H](C)O4)/C=C/O[C@@](C)(O9)C8=O)[C@@H]3C2)c(F)cc2c(=O)c(C(=O)O)cn(C3CC3)c12 (stereo partly shown) [Compound 5e]
potency compared with fluoroquinolone parent, MIC data in units of μM [1]: surpassed the potency of their fluoroquinolone parents

CC(=O)O[C@H]1[C@H](C)[C@H](O)[C@H](C)[C@@H](O)[C@@H](C(C)OC(=O)C(C)(C)CC(=O)O)/C=C/C=C(/C)C(=O)NC2=CC(=O)c3c(c(O)c(C)c4c3C(=O)[C@@](C)(O/C=C/[C@H](O[C@H]3C[C@@H]5OCO[C@@H]5[C@@H](C)O3)[C@H]1C)O4)C2=O (stereo partly shown) [Compound 1, kanglemycin A]
Gram-negative activity against E. coli (Escherichia coli): did not show Gram-negative activity

CC(=O)O[C@H]1[C@H](C)[C@H](O)[C@H](C)[C@@H](O)[C@@H](C(C)OC(=O)C(C)(C)CC(=O)O)/C=C/C=C(/C)C(=O)Nc2c3oc4cc(N5CCN(c6cc7c(cc6F)c(=O)c(C(=O)O)cn7C6CC6)CC5)cc(O)c4nc-3c3c4c(c(C)c(O)c3c2=O)O[C@](C)(O/C=C/[C@H](O[C@H]2C[C@@H]3OCO[C@@H]3[C@@H](C)O2)[C@H]1C)C4=O (stereo partly shown) [Compound 5a]
fold improvement in MIC compared to ciprofloxacin in units of μM ([1]; MIC in μM): ~ 277 fold
fold improvement in activity compared to ciprofloxacin ([1]; MIC in μg/mL): 64 fold

CC(=O)O[C@H]1[C@H](C)[C@H](O)[C@H](C)[C@@H](O)[C@@H](C(C)OC(=O)C(C)(C)CC(=O)O)/C=C/C=C(/C)C(=O)Nc2c3oc4cc(N5Cc6cc(-c7ccc8c(=O)c(C(=O)O)cn(C9CC9)c8c7OC(F)F)ccc6[C@H]5C)cc(O)c4nc-3c3c4c(c(C)c(O)c3c2=O)O[C@](C)(O/C=C/[C@H](O[C@H]2C[C@@H]3OCO[C@@H]3[C@@H](C)O2)[C@H]1C)C4=O (stereo partly shown) [Compound 5c]
potency compared with fluoroquinolone parent, MIC data in units of μM [1]: surpassed the potency of their fluoroquinolone parents

CC(=O)O[C@H]1[C@H](C)[C@H](O)[C@H](C)[C@@H](O)[C@@H](C(C)OC(=O)C(C)(C)CC(=O)O)/C=C/C=C(/C)C(=O)Nc2c3oc4cc(NC5(c6c(F)cc7c(=O)c(C(=O)O)cn8c7c6OC[C@@H]8C)CC5)cc(O)c4nc-3c3c4c(c(C)c(O)c3c2=O)O[C@](C)(O/C=C/[C@H](O[C@H]2C[C@@H]3OCO[C@@H]3[C@@H](C)O2)[C@H]1C)C4=O (stereo partly shown) [Compound 5b]
potency compared with fluoroquinolone parent, MIC data in units of μM [1]: surpassed the potency of their fluoroquinolone parents

COc1c(N2C[C@@H]3CCCN(CCCNc4cc(O)c5nc6c7c8c9c(C)c(O)c7c(=O)c(c-6oc5c4)NC(=O)/C(C)=C\C=C\[C@H](C(C)OC(=O)C(C)(C)CC(=O)O)[C@H](O)[C@@H](C)[C@@H](O)[C@@H](C)[C@H](OC(C)=O)[C@H](C)[C@@H](O[C@H]4C[C@@H]5OCO[C@@H]5[C@@H](C)O4)/C=C/O[C@@](C)(O9)C8=O)[C@@H]3C2)c(F)cc2c(=O)c(C(=O)O)cn(C3CC3)c12 (stereo partly shown) [Compound 6e]
potency compared with fluoroquinolone parent, MIC data in units of μM [1]: surpassed the potency of their fluoroquinolone parents

From PMC8779240 (Bioorganic & medicinal chemistry letters, 2021)
